PubChem BioAssay AID2060902 (Molecular Pharmacology Branch, DTP, NCI, 2025)
Where “and” joins values, the source holds several entries; their conditions need not be identical. Equal values may be shown once.

System: 485368-065-R3-J5-PDC spheroids with HUVEC/MSC, viability
Test: Anticancer human tumor 485368-065-R3-J5-PDC patient-derived pancreatic carcinoma cell line growth inhibition [RAS]
Conditions: for viability, T/C: stronger effect = lower value
Text: RAS pathway inhibitors in Combinations in Complex Spheroids
A high-throughput screen of multi-cell type tumor spheroids was designed to identify active combinations of RAS pathway inhibitors and targeted small molecules. Complex spheroids include a stromal component modeled by human endothelial cells (HUVEC) and fibroblasts modeled by human mesenchymal stem cells (MSCs). The concentration ranges selected for each drug and investigational agent were based upon clinically achievable concentrations if the clinical Cmax of the agent was known.
Compounds. The drugs and investigational agents: abemaciclib (NSC768073), cobimetinib (NSC768068), divarasib (GDC6063, NSC841802), docetaxel (NSC628503), GDC-1971 (RLY-1971, NSC841576), gemcitabine (NSC613327), inavolisib (NSC800729), ipatasertib (NSC767898), KB-0742 (NSC834161), MRTX-1133 (NSC836407), osimertinib (NSC779217), RMC-4630 (NSC839698), RMC-6236 (NSC851965), RMC-6291 (NSC852671), Ro-3306 (NSC812927), sapanisertib (NSC764658), SN-38 (NSC673596), staurosporine (NSC755774), SY5609 (NSC837396), and tovorafenib (DAY101, NSC766906), were obtained from the National Cancer Institute (NCI) Developmental Therapeutics Program Chemical Repository. The FDA-approved anticancer drug set is available from the NCI Developmental Therapeutics Program. […] The stock solutions were prepared in dimethyl sulfoxide (DMSO, Sigma-Aldrich, St. Louis, MO, cat. D2650) at 800-fold the tested concentration and stored at -70 degrees C prior to their use. All drugs and investigational agents were tested over a range starting from a high concentration at or near the clinical Cmax and decreasing in half-log increments. If the clinical Cmax for an agent had not been determined, the highest concentration tested was 10 microM.
Cell Culture. All cells were maintained in an incubator at 37 degrees C and 5% CO2 with 95% humidity. The PDC lines were cultured according to standard operating procedures established by the NCI PDMR. All PDCs were thawed and cultured in Matrigel-coated flasks prepared with a working solution of 1X Ham's F-12 nutrient mix, without supplementation (Invitrogen, Waltham, MA, cat. 11765054), 100 U/mL penicillin-streptomycin (Invitrogen, cat. 15140122), and 2.5% Matrigel (Corning Inc., Corning, NY, cat. 354248) for the first three passages. The 362531-283-R-J2-PDC and 782815-120-R-J1-PDC lines were cultured in 6C/Colon 1B media, which includes advanced DMEM/F-12 (Thermo Fisher Scientific, cat. 12634028), 10 mM HEPES (Thermo Fisher Scientific, cat. 15630080), 1X GlutaMAX supplement (Thermo Fisher Scientific, cat. 35050061), 0.1 mg/mL primocin (InvivoGen, San Diego, CA, cat. ant-pm-2), 10% defined fetal bovine serum, heat inactivated (HyClone Laboratories Inc., Logan, UT, cat. SH30070.03HI), 50% L-WRN conditioned media (ATCC, cat. CRL-3276), 1.25 mM N-Acetyl-L-cysteine (Sigma-Aldrich, cat. A9165), 10 mM nicotinamide (Sigma-Aldrich, cat. N0636), 1X B-27 supplement (Thermo Fisher Scientific, cat. 17504044), 1X N-2 supplement (Thermo Fisher Scientific, cat. 17502048), 50 ng/mL human EGF (Thermo Fisher Scientific, cat. PHG0311), and 10 microM Y-27632 dihydrochloride (Tocris Bioscience, cat. 1254). The K12877-001-R-J1-PDC line was cultured in 6I media, which includes all 6C/Colon 1B media plus 10 ng/mL human FGF-10 (PeproTech, cat. 100-26), 1 ng/mL human FGF-2 (PeproTech, cat. 100-18B), 1 µM prostaglandin E2 (Tocris Bioscience, cat. 2296), […] hydrocortisone (Sigma-Aldrich, cat. H4001), and […] bovine insulin (Sigma-Aldrich, cat. I6634). The K86415-001-R-J1-PDC line was cultured in 6D media, which includes all 6C/Colon 1B media components minus the L-WRN conditioned media. The 485176-168-R4-J1-PDC was cultured in PANC media, which includes all 6C/Colon 1B media plus 100 ng/mL human FGF-10 (PeproTech, cat. 100-26), 500 nM SB-431542 (Selleckchem, cat. S1067), and 10 nM gastrin (Tocris Bioscience, cat. 3006). […]
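Note: spheroids exposed to agents for seven days before readout.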

CCC(CC)c1cc(NC2CCC(N)C2)n2nccc2n1 (stereo not drawn) was tested, and the viability, T/C (compound 0.0316 µM) was 106% [middle of 4 runs], the viability, T/C (compound 0.1 µM) was 99.2% [middle of 4 runs] and the viability, T/C (compound 0.316 µM) was 115% and 105% (2×) and 109%. For the same molecule, the viability, T/C (compound 3.16 µM) was 4.93% [middle of 4 runs], the viability, T/C (compound 10 µM) was 8.61% [middle of 4 runs] and the IC50 (curve of compound) was 1.96 µM [middle of 4 runs].

In the case of CC1(O)CCCC1n1c(=O)c(C(F)F)cc2cnc(NC3CCN(S(C)(=O)=O)CC3)nc21 (stereo not drawn) + C#Cc1c(F)ccc2cc(O)cc(-c3ncc4c(N5CC6CCC(C5)N6)nc(OCC56CCCN5CC(F)C6)nc4c3F)c12, the IC50 (curve of first compound, second compound 0.0316 µM) is reported as 562 nM, the IC50 (curve of first compound, second compound 0.1 µM) is reported as 314 nM and the IC50 (curve of first compound, second compound 0.316 µM) is reported as 504 nM. The IC50 (curve of first compound, second compound 1 µM) was 344 nM, the IC50 (curve of first compound, second compound 3.16 µM) was 131 nM and the IC50 (curve of first compound, second compound 10 µM) was < 31.6 nM. It also gave a viability, T/C (second compound 0.0316 µM, first compound 0.0316 µM) of 94.1%, a viability, T/C (second compound 0.0316 µM, first compound 0.1 µM) of 62.8% and a viability, T/C (second compound 0.0316 µM, first compound 0.316 µM) of 53.2%. It also gave a viability, T/C (second compound 0.0316 µM, first compound 1 µM) of 46.5%, a viability, T/C (second compound 0.0316 µM, first compound 3.16 µM) of 39.4% and a viability, T/C (second compound 0.0316 µM, first compound 10 µM) of 11.2%. For the same molecule, the viability, T/C (second compound 0.1 µM, first compound 0.0316 µM) was 103%, the viability, T/C (second compound 0.1 µM, first compound 0.1 µM) was 66.4% and the viability, T/C (second compound 0.1 µM, first compound 0.316 µM) was 44.9%. For the same molecule, the viability, T/C (second compound 0.1 µM, first compound 1 µM) was 40.8%, the viability, T/C (second compound 0.1 µM, first compound 3.16 µM) was 39.9% and the viability, T/C (second compound 0.1 µM, first compound 10 µM) was 10.9%. It also gave a viability, T/C (second compound 0.316 µM, first compound 0.0316 µM) of 84.6%, a viability, T/C (second compound 0.316 µM, first compound 0.1 µM) of 71.1% and a viability, T/C (second compound 0.316 µM, first compound 0.316 µM) of 46%. The viability, T/C (second compound 0.316 µM, first compound 1 µM) was 39%, the viability, T/C (second compound 0.316 µM, first compound 3.16 µM) was 47.1% and the viability, T/C (second compound 0.316 µM, first compound 10 µM) was 11.9%. The viability, T/C (second compound 1 µM, first compound 0.0316 µM) was 90%, the viability, T/C (second compound 1 µM, first compound 0.1 µM) was 63.4% and the viability, T/C (second compound 1 µM, first compound 0.316 µM) was 41%. It also gave a viability, T/C (second compound 1 µM, first compound 1 µM) of 44.2%, a viability, T/C (second compound 1 µM, first compound 3.16 µM) of 40.4% and a viability, T/C (second compound 1 µM, first compound 10 µM) of 13.3%. For the same molecule, the viability, T/C (second compound 3.16 µM, first compound 0.0316 µM) was 65.8%, the viability, T/C (second compound 3.16 µM, first compound 0.1 µM) was 46.8% and the viability, T/C (second compound 3.16 µM, first compound 0.316 µM) was 38.8%. For the same molecule, the viability, T/C (second compound 3.16 µM, first compound 1 µM) was 34.4%, the viability, T/C (second compound 3.16 µM, first compound 3.16 µM) was 35.8% and the viability, T/C (second compound 3.16 µM, first compound 10 µM) was 9.18%. The viability, T/C (second compound 10 µM, first compound 0.0316 µM) was 36.9%, the viability, T/C (second compound 10 µM, first compound 0.1 µM) was 32.6% and the viability, T/C (second compound 10 µM, first compound 0.316 µM) was 28.6%. For the same molecule, the viability, T/C (second compound 10 µM, first compound 1 µM) was 30.9%, the viability, T/C (second compound 10 µM, first compound 3.16 µM) was 31.9% and the viability, T/C (second compound 10 µM, first compound 10 µM) was 6.8%.
